# Like-named read-outs stand apart in the source and are kept apart here.
# Assays:
# [1] = molecular target: T1, human cystathionine-γ-lyase (hCSE) (Homo sapiens, UniProt P32929); experiment: IC50 assay: inhibition of H2S production by purified hCSE, WSP5 fluorescent probe; format: biochemical; conditions: for IC50: purified hCSE 0.02 μM, 100 μM L-cysteine, WSP5 probe, mean ± SD
# T1 construct: His6-TEV (N, cleaved yes); host or cells: E. coli
# Description: (§1) Fluorescence spectrophotometry-based inhibitory activity toward purified bCSE and hCSE was measured in a 96-well nonbinding black plate (Greiner, Kremsmunster, Austria) at 100 μL of the reaction mixture per well. bCSE and hCSE (0.02 μM) were preincubated in a thermoshaker (Biosan, Riga, Latvia) (30 °C, 300 rpm) for 40 min in 50 mM sodium phosphate buffer (pH 8.0), supplemented with 10 μM pyridoxal 5′-phosphate (Sigma-Aldrich, St. Louis, MO, USA), 0.1% of Tween 20 (Sigma-Aldrich, St. Louis, MO, USA), and 1.2 μM Washington State Probe-5 (Cayman Chemical, Ann Arbor, MI, USA) (excitation: 500 nm, emission: 530 nm) at different concentrations of a tested inhibitor. The reaction was initiated by the addition of 100 μM L-cysteine (TCI, Chennai, Tamil Nadu, India) in 50 mM sodium phosphate buffer pH 8.0 to the reaction mixture, and the enzymatic activity was monitored for 12 h using a CLARIOstar Plus instrument (BMG LABTECH GmbH, Ortenberg, Germany). The 100 µM L-cysteine concentration used in the experiments corresponds to the maximal reported intracellular concentration in bacteria. The data were normalized to the positive and negative controls, and IC50 values were obtained by fitting to a four-parameter sigmoidal curve (inhibitor vs. response, variable slope model) in GraphPad Prism 8 software (GraphPad by Dotmatics, Boston, MA, USA). Each experiment was conducted with 2–3 technical replicates. IC50 values were means of at least two independent experiments.
# (§2) For the production of S. aureus cystathionine-γ-lyase (bCSE) and of human cystathionine-γ-lyase (hCSE), plasmids pSUMO:saCSE (Addgene # 54336) and pNIC28-Bsa4 (Addgene # 42365) were employed. Cultivation of a competent E. coli cell strain (Thermo Fisher Scientific, Waltham, MA, USA), transformed with a target plasmid, was carried out on a selective solid medium with kanamycin. Bacterial cells harboring the plasmid vector were cultured at 37 °C and 180 rpm until OD600 = 0.65. Then, isopropyl β-D1-thiogalactopyranoside (IPTG) was added to a final concentration of 1 mM. To obtain bCSE, the cells were cultured for 3.5 h at 37 °C; to obtain hCSE, the cells were cultured for 18–20 h at 25 °C. After centrifugation, cells were resuspended in a buffer composed of 50 mM Tris–HCl, at a pH of 8.0, and 300 mM sodium chloride. After that, the cells were lysed by ultrasonication, with a pulse duration of 15 s and an interval between pulses of 15 s. The amplitude of the ultrasonic vibrations was 50% of the maximum. After lysis, samples were centrifuged for 15 min (20,000× g at 4 ℃). The pH of the supernatant obtained after the centrifugation was adjusted to 7.5 by the addition of a 1 M solution of Tris–OH. Then, the test sample was subjected to filtration through a polyethersulfone membrane with a pore diameter of 0.22 μm.
# [2] = molecular target: S. aureus cystathionine-γ-lyase (bCSE) (Staphylococcus aureus, UniProt A0A0H3K724); experiment: IC50 assay: inhibition of H2S production by purified bCSE, WSP5 fluorescent probe; format: biochemical
# Description: as §1, §2
# [3] = test system: P. aeruginosa GIMC5016:PA1840/36/2015; experiment: Susceptibility of isolate to main antimicrobial agents; format: cell-based
# [4] = test system: P. aeruginosa GIMC5016:PA1840/36/2015; experiment: MIC of antibiotics alone and with potentiators, clinical isolate; conditions: P. aeruginosa GIMC5016:PA1840/36/2015, no potentiator
# Description: (§3) Overnight (ON) culture of a specific strain was grown in the liquid Luria–Bertani nutrient medium (LB broth, BD Difco) for 18 h at 37 °C, with agitation at 180 rpm using an Innova 44R orbital shaker (Eppendorf, Hamburg, Germany). After a certain period, 50 µL of the ON culture was transferred into 5 mL of the LB medium and grown for 3 h at 37 °C with agitation. Growth in the liquid medium was assessed by means of turbidity of the suspension, measured using a Densi-La-Meter II densitometer (Erba Lachema s.r.o., Brno, Czech Republic). Then, the bacterial suspension was diluted to the concentration 10^6 cells/mL with sterile LB and used as a seed culture [38, 39].
# (§4) For the assessment of MICs, 96-well microtiter plates were utilized at 200 µL of a medium per well. Each well was filled with 100 µL of the seed culture. After that, 10 µL of a solution of each tested synthetic compound (potentiators) was added into each experimental well. Finally, 90 µL of twofold serial dilutions of an antibiotic in a sterile LB was added into individual wells.
# (§5) As a positive control, we set up wells with 100 µL of the bacterial culture and 100 µL of the sterile LB medium. […] Negative-control wells contained 200 µL of the sterile medium. The plates were incubated in a thermostat for 18–20 h at 37 °C. The bacterial growth was assessed as optical density at 600 nm on a CLARIOstar microplate reader (BMG LABTECH GmbH, Ortenberg, Germany)).
# [5] = test system: A. baumannii GIMC5509:ABT-52Ts19; experiment: as above; conditions: A. baumannii GIMC5509:ABT-52Ts19, no potentiator
# Description: as §3, §4, §5
# [6] = HEK293 cytotoxicity assay (Alamar Blue); format: cell-based; conditions: human, HEK293, 72 h
# Description: The HEK 293 cell line was obtained from the European Collection of Authenticated Cell Cultures (ECACC, cat. # 85120602, Salisbury, UK). The cells were grown in a monolayer culture in Dulbecco’s Modified Eagle’s Medium (DMEM) (PanEco, Moscow, Russia), supplemented with 2 mM L-glutamine, 1% of a penicillin/streptomycin solution (Capricorn Scientific, Ebsdorfergrund, Germany), and 10% of heat inactivated fetal bovine serum (HyClone, Cytiva, Marlborough, MA, USA) in a humidified atmosphere containing 5% of CO2 at 37 °C (Binder, Germany). For the assay, HEK 293 cells were seeded in a 96-well plate (Corning, NY, USA) in 100 μL of the complete culture medium, at a final density of 2 × 10^3 cells/well, and were cultured for 24 h for proper attachment. Subsequently, the medium was removed, and the cells were exposed to a tested inhibitor at different concentrations for 72 h in 100 μL of the fresh complete culture medium. The sensitivity of the cells to the compounds was detected using the vital dye Alamar Blue (Invitrogen, San Diego, CA, USA). The Alamar Blue assay was performed according to the procedure described by O’Brien et al.. After incubation with the tested bCSE inhibitors, 10 μL of the Alamar Blue reagent was added into each well, the cell culture plates were returned to the humidified incubator, and the fluorescence was read after 3 h. The plates were exposed to an excitation light of 545 nm wavelength, and emission at 600 nm was measured on the CLARIOstar Plus (BMG LABTECH GmbH, Ortenberg, Germany). To determine half-maximal cytotoxic concentration (CC50), a four-parameter sigmoidal curve model (GraphPad Prism 8 software) was fitted to the measurement data.
# [7] = in vitro
# Description: A test compound (final concentration 10 μM) was incubated at 37 °C in SGF, SIF, or human plasma for 2, 2, or 4 h, respectively. 100 μL aliquots were taken from each sample and 300 μL of acetonitrile containing an internal standard was added. […] All compounds were tested in triplicate. The percentage of a remaining compound after incubation was determined based on the chromatographic peak area of the sample after incubation and that of time zero (freshly prepared and injected) sample.
# [8] = read-out: IC50 biochemical assay hCSE
# [9] = IC50 biochemical assay bCSE, purified bCSE 0.02 μM, 100 μM L-cysteine, WSP5 probe, mean ± SD
# [10] = IC50 (uM), bCSE enzymatic IC50, rounded, repeated in Table S13
# [11] = IC50 (uM), bCSE enzymatic IC50, rounded, repeated in Table S14
# [12] = IC50 (uM), bCSE enzymatic IC50, rounded, repeated in Table S15
# T1 sequence (P32929 whole entry): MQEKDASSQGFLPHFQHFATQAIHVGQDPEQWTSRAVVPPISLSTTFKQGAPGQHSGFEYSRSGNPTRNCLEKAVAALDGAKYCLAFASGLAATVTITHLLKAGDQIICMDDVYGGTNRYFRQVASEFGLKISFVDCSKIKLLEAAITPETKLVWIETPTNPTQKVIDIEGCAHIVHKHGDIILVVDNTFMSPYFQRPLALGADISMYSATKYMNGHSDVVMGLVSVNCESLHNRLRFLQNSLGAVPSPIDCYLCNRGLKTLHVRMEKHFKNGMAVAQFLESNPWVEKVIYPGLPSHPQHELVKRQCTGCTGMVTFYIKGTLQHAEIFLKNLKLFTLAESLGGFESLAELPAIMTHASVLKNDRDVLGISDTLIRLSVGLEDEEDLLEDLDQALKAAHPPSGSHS
# S. aureus cystathionine-γ-lyase (bCSE), sequence (A0A0H3K724 entry or part of it): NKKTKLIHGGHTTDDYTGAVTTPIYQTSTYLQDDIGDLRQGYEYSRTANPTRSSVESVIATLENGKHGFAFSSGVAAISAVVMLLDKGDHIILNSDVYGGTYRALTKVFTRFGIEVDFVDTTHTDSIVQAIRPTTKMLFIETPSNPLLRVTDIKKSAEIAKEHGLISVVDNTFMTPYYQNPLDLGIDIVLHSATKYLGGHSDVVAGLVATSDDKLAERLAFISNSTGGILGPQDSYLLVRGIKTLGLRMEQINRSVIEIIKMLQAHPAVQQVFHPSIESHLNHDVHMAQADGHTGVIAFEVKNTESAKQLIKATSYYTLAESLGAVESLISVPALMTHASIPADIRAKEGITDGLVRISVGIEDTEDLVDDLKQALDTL
smiles,measurement,setting,value
"C#CC[C@H](N)C(=O)O (racemic) [PAG, DL-propargylglycine, reference compound]",Hill slope of dose-response curve toward hCSE,[1],~1.0
same,IC50,[1]; [8],0.17 ± 0.02 µM
same,Hill slope of dose-response curve toward bCSE,[2],approximately two
same,IC50,[2]; [9],24.3 ± 0.7 µM
"CO/N=C(\C(=O)N[C@@H]1C(=O)N2C(C(=O)[O-])=C(C[N+]3(C)CCCC3)CS[C@H]12)c1csc(N)n1 [Cefepim, cefepime]",susceptibility of isolate (Sensitive to / Resistant to),[3],Resistant to
same,MIC of antibiotic alone,[4],256 µg/mL
same,MIC of antibiotic alone,[5],> 512 µg/mL
O=C(O)c1cn(Cc2cccc3ccccc23)c2ccccc12 [Compound 1a],activity toward hCSE (in words),[1],did not show noticeable activity
same,IC50,[1]; IC50 biochemical assay hCSE,> 500 µM
same,activity toward bCSE (in words),[2],did not show noticeable activity
same,IC50,[2]; [9],> 500 µM
same,CC50 at 72 h,[6],432 ± 37.5 µM
O=C(O)c1cn(Cc2ccc3ccccc3c2)c2ccccc12 [Compound 1b],activity toward hCSE (in words),[1],did not show noticeable activity
same,IC50,[1]; IC50 biochemical assay hCSE,> 500 µM
same,activity toward bCSE (in words),[2],did not show noticeable activity
same,IC50,[2]; [10],> 500 µM
same,IC50,[2]; [11],> 500 µM
same,IC50,[2]; [9],> 500 µM
same,CC50 at 72 h,[6],423 ± 71.8 µM
O=C(O)c1cc2ccccc2n1Cc1ccc2ccccc2c1 [Compound 2b],IC50,[1]; [8],285 ± 14.6 µM
same,IC50,[2]; [10],71 µM
same,IC50,[2]; [11],71 µM
same,IC50,[2]; [12],71 µM
same,IC50,[2]; [9],71.1 ± 4.2 µM
same,CC50 at 72 h,[6]; HEK293 cells,368 ± 32.8 µM
O=C(O)c1ccc2ccn(Cc3cccc4ccccc34)c2c1 [Compound 3a],IC50,[1]; [8],472 ± 37.3 µM
same,IC50,[2]; [10],79 µM
same,IC50,[2]; [11],79 µM
same,IC50,[2]; [12],79 µM
same,IC50,[2]; [9],79.3 ± 5.9 µM
same,CC50 at 72 h,[6]; HEK293 cells,452 ± 21.5 µM
O=C(O)c1ccc2ccn(Cc3ccc4ccccc4c3)c2c1 [Compound 3b],IC50,[1]; [8],> 500 µM
same,IC50,[2]; [11],141 µM
same,IC50,[2]; [12],141 µM
same,IC50,[2]; [9],148 ± 46.4 µM
same,CC50 at 72 h,[6]; HEK293 cells,528 ± 47.1 µM
O=C(O)c1ccc2c(ccn2Cc2ccc3ccccc3c2)c1 [Compound 4b],IC50,[1]; [8],> 500 µM
same,IC50,[2]; [10],110 µM
same,IC50,[2]; [11],110 µM
same,IC50,[2]; [12],110 µM
same,IC50,[2]; [9],110 ± 11.7 µM
same,CC50 at 72 h,[6]; HEK293 cells,217 ± 93.2 µM
O=C(O)c1cccn1Cc1cccc2ccccc12 [Compound 5a],IC50,[1]; [8],> 500 µM
same,IC50,[2]; [10],289 µM
same,IC50,[2]; [11],289 µM
same,IC50,[2]; [12],289 µM
same,IC50,[2]; [9],289 ± 30.4 µM
same,CC50 at 72 h,[6]; HEK293 cells,460 ± 51.1 µM
O=C(O)c1cccn1Cc1ccc2ccccc2c1 [Compound 5b],IC50,[1]; [8],> 500 µM
same,IC50,[2]; [10],> 500 µM
same,IC50,[2]; [11],> 500 µM
same,IC50,[2]; [12],> 500 µM
same,IC50,[2]; [9],> 500 µM
same,CC50 at 72 h,[6]; HEK293 cells,848 ± 72.2 µM
"COc1cccc2c1C(=O)c1c(O)c3c(c(O)c1C2=O)C[C@@](O)(C(=O)CO)C[C@@H]3O[C@H]1C[C@H](N)[C@H](O)[C@H](C)O1 [Doxorubicin, reference compound]",CC50 at 72 h,[6]; HEK293 cells,1.3 ± 0.71 µM
"CNC(C)C1CCC(N)C(OC2C(N)CC(N)C(OC3OCC(C)(O)C(NC)C3O)C2O)O1 (centres unmarked) [Gentamicin, gentamicin]",susceptibility of isolate (Sensitive to / Resistant to),[3],Resistant to
same,MIC of antibiotic alone,[4],> 512 µg/mL
"C[C@@H](O)[C@H]1C(=O)N2C(C(=O)O)=C(S[C@@H]3CN[C@H](C(=O)N(C)C)C3)[C@H](C)[C@H]12 [Meropenem, meropenem]",susceptibility of isolate (Sensitive to / Resistant to),[3],Resistant to
same,MIC of antibiotic alone,[4],16 µg/mL
same,MIC of antibiotic alone,[5],64 µg/mL
"COc1ccc2[nH]c([S+]([O-])Cc3ncc(C)c(OC)c3C)nc2c1 (centres unmarked) [Omeprazole, reference compound]","Stability in SIF, % Remaining at 2 h","[7]; simulated gi fluid, 2 h, 10 μM",90.5%
same,"remaining at 2 h, 10 μM","[7]; simulated gi fluid, Stability in SGF",< 0.1%
same,"remaining at 2 h, 10 μM","[7]; simulated gi fluid, Stability in SIF",90.5 ± 10%
"CC(C)[N+](C)(CCOC(=O)C1c2ccccc2Oc2ccccc21)C(C)C [Propantheline, propantheline bromide, reference compound]","Stability in human plasma, % Remaining at 4 h","[7]; 4 h, 10 μM",0.2%
same,"remaining at 4 h, 10 μM","[7]; human, plasma, Stability in human plasma, % Remaining at 4 h",0.21 ± 0.04%
NCC[C@H](O)C(=O)N[C@@H]1C[C@H](N)[C@@H](O[C@H]2O[C@H](CN)[C@@H](O)[C@H](O)[C@H]2O)[C@H](O)[C@H]1O[C@H]1O[C@H](CO)[C@@H](O)[C@H](N)[C@H]1O [amikacin],susceptibility of isolate (Sensitive to / Resistant to),[3],Resistant to
Cc1nnc(SCC2=C(C(=O)O)N3C(=O)[C@@H](NC(=O)Cn4cnnn4)[C@H]3SC2)s1 [cefazolin],susceptibility of isolate (Sensitive to / Resistant to),[3],Resistant to
CO/N=C(\C(=O)N[C@@H]1C(=O)N2C(C(=O)O)=C(COC(C)=O)CS[C@H]12)c1csc(N)n1 [cefotaxime],susceptibility of isolate (Sensitive to / Resistant to),[3],Resistant to
CC(C)(O/N=C(\C(=O)N[C@@H]1C(=O)N2C(C(=O)[O-])=C(C[n+]3ccccc3)CS[C@H]12)c1csc(N)n1)C(=O)O [ceftazidime],susceptibility of isolate (Sensitive to / Resistant to),[3],Resistant to
CO/N=C(\C(=O)N[C@@H]1C(=O)N2C(C(=O)O)=C(CSc3nc(=O)c(=O)[nH]n3C)CS[C@H]12)c1csc(N)n1 [ceftriaxone],susceptibility of isolate (Sensitive to / Resistant to),[3],Resistant to
O=C(O)c1cn(C2CC2)c2cc(N3CCNCC3)c(F)cc2c1=O [ciprofloxacin],susceptibility of isolate (Sensitive to / Resistant to),[3],Resistant to
C[C@H]1COc2c(N3CCN(C)CC3)c(F)cc3c(=O)c(C(=O)O)cn1c23 [levofloxacin],susceptibility of isolate (Sensitive to / Resistant to),[3],Resistant to
CCN1CCN(C(=O)N[C@@H](C(=O)N[C@@H]2C(=O)N3[C@@H]2SC(C)(C)[C@@H]3C(=O)O)c2ccccc2)C(=O)C1=O [piperacillin],susceptibility of isolate (Sensitive to / Resistant to),[3],Resistant to
NC[C@H]1O[C@H](O[C@H]2[C@H](O)[C@@H](O[C@H]3O[C@H](CO)[C@@H](O)[C@H](N)[C@H]3O)[C@H](N)C[C@@H]2N)[C@H](N)C[C@@H]1O [tobramycin],susceptibility of isolate (Sensitive to / Resistant to),[3],Resistant to
